Reference: patent EP4696306A1, “ADENOSINE TRIPHOSPHATE SECRETION INHIBITOR, HEPATIC STELLATE CELL ACTIVATION INHIBITOR, HEPATIC STELLATE CELL DEACTIVATOR, HEPATIC FIBROSIS THERAPEUTIC AGENT, NON-ALCOHOLIC STEATOHEPATITIS THERAPEUTIC AGENT, PSORIASIS THERAPEUTIC AGENT, AND USE OF COMPOUND FOR PRODUCING ADENOSINE TRIPHOSPHATE …” (KURUME UNIVERSITY, priority 2023, dated 2024)

What was measured:
[1] = tested on: catecholamine transport; experiment: Catecholamine (3H-dopamine) transport in chromaffin granule membranes; type: biochemical, bovine
Experimental: Chromaffin granule membranes were prepared from adrenal glands collected from slaughtered cattle according to Reference A (Nathan Nelson et al., 1988, Chromaffin Granule Proton Pump, Methods in Enzymology, 157, 619-633). Chromaffin granule membranes prepared by sucrose density gradient centrifugation were suspended in 2 ml of SME buffer (20 mM MOPS-tris (pH 7.0), 0.3 M sucrose, 5 mM EDTA, 10 µg/ml leupeptin, and 10 µg/ml pepstatin) + 25% glycerol, and the resulting suspension was aliquoted and stored at -80°C. Under these conditions, the ATP transport activity, the V-ATPase activity, and the catecholamine transport activity remain fully active for at least one year.
A catecholamine transport inhibition experiment was carried out in the same manner as the ATP transport experiment except that the experiment used a measurement liquid containing 20 mM MOPS-tris (pH 7.0), 0.1 M sucrose, 0.1 M potassium chloride, 5 mM magnesium acetate, and about 5 µg of chromaffin granule membranes. To 0.5 ml of the measurement liquid, 2 mM ATP was added, and the resulting mixture was incubated at 30°C for about 5 minutes, followed by addition of^3 [H]-dopamine thereto to a final concentration of 10 µM. After further incubation at 30°C for 15 minutes, 0.2 ml of the reaction liquid was subjected to suction filtration through a Millipore MCE membrane filter with a pore size of 0.45 µm, and the radioactivity on the filter was measured (N = 3). The substrate, ^3[H]-dopamine, was prepared by mixing 3,4-[RING-2,5,6-^3H]dihydroxyphenylethylamine (dopamine) (30 Ci/mmol) (manufactured by New England Nuclear) with dopamine hydrochloride (manufactured by LKT Laboratories) such that a final concentration of 0.1 mM was achieved during the use.
Chromaffin granule membrane vesicles were prepared in the same manner as in Example 5, and uptake of radiolabeled ATP into the vesicles was measured. Transport activity of catecholamine (dopamine) and ATP-dependent proton transport by V-ATPase were also measured in the same manner as in Example 5.

[2] = tested on: human epidermal keratinocytes; experiment: Imiquimod-induced ATP secretion in keratinocytes; type: cell-based; conditions: 18 hours incubation, imiquimod 15 minutes, N = 8
Experimental: In the same manner as in Example 1, keratinocytes were cultured at 2.5×10^4 cells/well in a 24-well plate at 37°C in 5% CO2 for 4 days. The medium was replaced with HBSS (manufactured by Gibco) supplemented with 1 µM or 10 µM imeglimin, and incubation was performed at 37°C in 5% CO2 for 18 hours. Thereafter, imiquimod was added thereto at 1 µg/ml or 0.5 µg/ml, and incubation was performed for 15 minutes, followed by collection of 200 µl of the supernatant. The supernatant was immediately treated on a heat block at 95°C for 10 minutes, and ATP in the supernatant was quantified using a ATP Assay Kit - Luminescence (manufactured by Dojindo) (N = 8).

Structure (SMILES)	inhibition of catecholamine transport ([1]; concentrations of up to 5 mM, data not shown)	ATP-dependent dopamine transport activity ([1]; in the presence of 5 mM PEP, control 11.07 ± 0.129, N = 3)	ATP secretion promoted by imiquimod ([2]; 1 µM imeglimin)	ATP secretion promoted by imiquimod ([2]; 10 µM imeglimin)
C=C(OP(=O)(O)O)C(=O)O [PEP, phosphoenolpyruvic acid]	did not inhibit	12.41 ± 0.250 nmol/mg protein		
C[C@H]1N=C(N(C)C)N=C(N)N1 [imeglimin]			strongly inhibited	strongly inhibited
